From US7601713B2, “Kinase inhibitors and their uses” (Rigel Pharmaceuticals, Inc., priority 2005, dated 2009)

Target: T1, Axl kinase (Homo sapiens, UniProt P30530)
T1 construct: endogenous in cells; host or cells: HeLa cells
T1 sequence (P30530 26-894): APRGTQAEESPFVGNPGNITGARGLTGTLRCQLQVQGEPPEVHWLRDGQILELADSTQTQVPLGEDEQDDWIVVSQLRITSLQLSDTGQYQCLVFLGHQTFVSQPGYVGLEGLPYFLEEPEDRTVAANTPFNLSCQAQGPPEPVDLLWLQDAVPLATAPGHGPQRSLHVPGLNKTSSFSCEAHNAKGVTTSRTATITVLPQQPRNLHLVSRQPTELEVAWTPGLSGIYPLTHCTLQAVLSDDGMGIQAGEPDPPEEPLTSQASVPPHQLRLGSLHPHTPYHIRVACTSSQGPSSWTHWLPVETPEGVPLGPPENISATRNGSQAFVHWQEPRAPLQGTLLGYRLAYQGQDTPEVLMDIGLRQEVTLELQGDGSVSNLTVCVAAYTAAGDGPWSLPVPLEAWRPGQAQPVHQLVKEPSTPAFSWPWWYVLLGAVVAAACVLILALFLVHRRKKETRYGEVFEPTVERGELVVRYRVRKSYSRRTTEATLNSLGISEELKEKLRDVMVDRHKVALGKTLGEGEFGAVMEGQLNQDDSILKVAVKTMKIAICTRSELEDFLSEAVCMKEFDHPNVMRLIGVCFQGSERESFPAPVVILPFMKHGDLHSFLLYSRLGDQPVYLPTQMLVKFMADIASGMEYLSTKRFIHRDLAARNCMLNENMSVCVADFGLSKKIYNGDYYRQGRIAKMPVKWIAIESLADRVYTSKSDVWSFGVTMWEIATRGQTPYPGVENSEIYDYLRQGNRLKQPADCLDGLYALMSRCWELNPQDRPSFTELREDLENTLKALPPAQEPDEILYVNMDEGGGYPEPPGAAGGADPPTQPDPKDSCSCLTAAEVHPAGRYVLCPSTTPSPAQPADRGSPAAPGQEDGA
Assay: Phospho-Akt in-cell Western assay (Axl antibody cross-linking, Hela cells)
Format: cell-based
Details: phospho-Akt readout, read-out: IC50, inhibition of Axl kinase
Protocol: The compounds of the invention were tested in the following assay for their ability to inhibit Axl activity.
Phospho-Akt in-Cell Western Assay
Starvation medium: For Axl stimulation: 0.5% FCS (fetal calf serum) in DMEM, plus Axl/Fc (extracellular domain of AXL fused to immunoglobulin Fc region) (R&D, 154-AL) 500 ng/mL.
Axl antibody cross-linking: • 1st: Mouse anti-Axl (R&D, MAB 154). • 2nd: Biotin-SP-conjugated AffiniPure goat anti-mouse IgG (H+L) (Jackson ImmunoResearch #115-065-003).
Primary antibody: Rabbit anti-human Phospho-Akt antibody (Cell Signaling 9271): 1×250 diluted in blocking buffer.
Secondary antibody: HRP (horse radish peroxidase)-conjugated Goat anti-Rabbit secondary, stock solution: Jackson lmmunoResearch (Goat anti-Rabbit HRP, #111-035-144) 1:1 diluted in glycerol, store at −20° C. The working solution: 1×2000 dilution of stock in blocking buffer.
A 96 well TC (tissue culture treated) plate was coated with 10 μg/mL poly-L-Lysine at 37° C. for 30 min, washed twice with PBS, and air-dried for 5 minutes before cells were added. Hela cells were seeded at 10,000 cells/well and the cells were starved in 100 μL starvation medium containing Axl/Fc for 24 hrs.
The cells were pre-treated with test compounds by adding 100 μL of 2× test compound to the starvation medium on the cells. The cells were incubated at 37° C. for 1 hr before stimulation.
The cells were stimulated by Axl-antibody cross-linking as follows: A 5× 1st/2nd Axl antibody mixture was made (37.5 μg/mL 1st/100 μg/mL 2nd) in starvation medium and nutated at 4° C. with thorough mixing for 1-2 hours for clustering. The resulting mix was warmed to 37° C. 50 μL of 5× Axl 1st/2nd of antibody cluster was added to the cells and the cells were incubated at 37° C. for 5 min.
After 5 minutes stimulation, the plate was flicked to remove medium and the plate was tapped onto paper towels. Formaldehyde (4.0% in PBS, 100 μL) was added to fix the cells and the cells were incubated at ambient temperature for 20 min without shaking.
The cells were washed with a plate washer buffer to remove the formaldehyde solution. The plate was flicked to remove excess wash buffer and tapped onto paper towels. Quenching buffer (100 μL) was added to each well and the cells were incubated at ambient temperature for 20 minutes without shaking.
The cells were washed with a plate washer buffer to remove the quenching buffer. Blocking buffer (100 μL) was added and the cells were incubated at ambient temperature for at least an hour with gentle shaking.
The cells were washed with a plate washer buffer and diluted primary antibody (50 μL) was added to each well (blocking buffer was added to the negative control wells instead). The plates were incubated overnight at 4° C. with gentle shaking.
The wash buffer was removed, diluted secondary antibody (100 μL) was added, and the cells were incubated at ambient temperature for 1 hour with gentle shaking. During the incubation, the chemiluminescent reagent was brought to ambient temperature.
The secondary antibody was removed by washing the cells 1× with wash buffer, 1× with PBS by plate washer. The PBS was removed from the plate and the chemiluminescent reagent (80 μL: 40 μL A and 40 μL B) was added to each well at ambient temperature.
The resulting chemiluminescence was read with a Luminomitor within 10 minutes to minimize changes in signal intensity. After reading the chemiluminescence, the cells were washed 1× with wash buffer and 1× with PBS by plate washer. The plate was tapped onto paper towels to remove excess liquid from wells and air-dried at ambient temperature for 5 minutes.
Crystal Violet working solution (60 μL) was added to each well and the cells were incubated at ambient temperature for 30 min. The crystal violet solution was removed, and the wells were rinsed with PBS, then washed 3× with PBS (200 μL) for 5 minutes each.
5% SDS solution (70 μL) was added to each well and the cells were incubated on a shaker for 30 min at ambient temperature. […]

Row | Compound | IC50 [µM]
1 | CCOC(=O)C1C2C=CC(C2)C1Nc1nc(Nc2cccc(OC)c2)nc2[nH]ccc12 (racemic) [Compound 232, Racemic-(2-exo,3-exo)-N4-(3-ethoxycarbonylbicyclo [2.2.1]hept-5-en-2-yl)-N2-(3-methoxyphenyl)-1H-pyrrolo[2,3-d]pyrimidine-2,4-diamine] | < 10
2 | NC(=O)[C@H]1C2C=CC(C2)[C@H]1Nc1nc(Nc2ccc(C(=O)N3CCN(C4CCCCC4)CC3)cc2)nc2cc(C(F)(F)F)sc12 (stereo partly drawn) [Compound 211, (2S,3R)-3-(2-(4-(4-cyclohexylpiperazine-1-carbonyl)phenylamino)-6-(trifluoromethyl)thieno [3,2-d]pyrimidin-4 ylamino)bicyclo[2.2.1] hept-5-ene-2-carboxamide] | < 10
3 | NC(=O)[C@H]1C2C=CC(C2)[C@H]1Nc1nc(Nc2ccc(OCCN3CCCC3)cc2)nc2c1cnn2Cc1ccccc1 (stereo partly drawn) [Compound 189, (2S,3R)-3-(1-benzyl-6-(4-(2-(pyrrolidin-1-yl)ethoxy)phenylamino)-1H-pyrazolo[3,4-d]pyrimidin-4-ylamino)bicyclo[2.2.1] hept-5-ene-2-carboxamide] | > 10
4 | CONC(=O)Cc1cccc(Nc2nc(NC3C4C=CC(C4)C3C(N)=O)c3cc[nH]c3n2)c1 (racemic) [Compound 229, Racemic-(2-exo,3-exo)-N4-(3-aminocarbonylbicyclo [2.2.1]hept-5-en-2-yl)-N2-[3-(N-methoxy)-aminocarbonyl-methylphenyl]-1H-pyrrolo[2,3-d]pyrimidine-2,4-diamine] | < 10
5 | CCOC(=O)N1CCN(c2ccc(Nc3nc(N[C@@H]4C5C=CC(C5)[C@@H]4C(N)=O)c4sccc4n3)cc2F)CC1 (stereo partly drawn) [Compound 208, ethyl 4-(4-(4-((2R,35)-3-carbamoylbicyclo[2.2. 1]hept-5-en-2-ylamino)thieno[3,2-d]pyrimidin-2-ylamino)-2-fluorophenyl)piperazine-1-carboxylate] | > 10
6 | CCN(CC)C(=O)c1cccc(Nc2nc(NC3C4C=CC(C4)C3C(N)=O)c3cc[nH]c3n2)c1 (racemic) [Compound 222, Racemic-(2-exo,3-exo)-N4-(3-aminocarbonylbicyclo [2.2.1]hept-5-en-2-yl)-N2-(3-N,N-diethyl-aminocarbonyl-phenyl)-1H-pyrrolo[2,3-d]pyrimidine-2,4-diamine] | < 5
7 | NC(=O)C1C2C=CC(C2)C1Nc1nc(Nc2ccc(OCCN3CCCC3)cc2)nc2[nH]cnc12 (racemic) [Compound 234] | < 5
8 | NC(=O)[C@H]1C2C=CC(C2)[C@H]1Nc1nc(Nc2ccc(OCCN3CCCC3)cc2)nc2cc(C(F)(F)F)sc12 (stereo partly drawn) [Compound 210, (2S,3R)-3-(2-(4-(2-(pyrrolidin-1-yl)ethoxy)phenylamino)-6-(trifluoromethyl)thieno [3,2-d]pyrimidin-4-ylamino)bicyclo[2.2.1] hept-5-ene-2-carboxamide] | > 10
9 | NC(=O)C1C2C=CC(C2)C1Nc1nc2c(c(Nc3ccc(OCCN4CCCC4)cc3)n1)CN(Cc1ccccc1)CC2 (stereo not shown) [Compound 186, 3-(6-benzyl-4-(4-(2-(pyrrolidin-1-yl)ethoxy)phenylamino)-5,6,7,8-tetrahydropyrido[4,3-d]pyrimidin-2-ylamino)bicyclo[2.2.1] hept-5-ene-2-carboxamide] | < 5

The next lines start with the values.

Row | IC50 [µM] | Compound
10 | < 5 | NC(=O)C1C2C=CC(C2)C1Nc1nc(Nc2ccc(OCCN3CCCC3)cc2)nc2c1CCC2 (stereo not shown) [Compound 185, 3-(2-(4-(2-(pyrrolidin-1-yl)ethoxy)phenylamino)-6,7-dihydro-5H-cyclopenta[d]pyrimidin-4-ylamino)bicyclo[2.2.1] hept-5-ene-2-carboxamide]
11 | < 5 | CNC(=O)[C@H]1CC2CC(C2(C)C)[C@@]1(C)Nc1nc(Nc2ccc(N3CCN(C4CCCCC4)CC3)cc2)nc2ccsc12 (stereo in doubt) [Compound 198, (1S,2R,3S,SR)-2-(2-(4-(4-cyclohexylpiperazin-1-yl)phenylamino)thieno [3,2-d]pyrimidin-4-ylamino)-N,2,6,6-tetramethylbicyclo[3.1.1] heptane-3-carboxamide]
12 | < 5 | CC1CCN(C2CCN(c3ccc(Nc4nc(N[C@@H]5C6C=CC(C6)[C@@H]5C(N)=O)c5sc(C(F)(F)F)cc5n4)cc3F)CC2)CC1 (stereo partly drawn) [Compound 209, (2S,3R)-3-(2-(3-fluoro-4-(4-methyl-1,4′-bipiperidin-1′-yl)phenylamino)-6-(trifluoromethyl)thieno [3,2-d]pyrimidin-4 ylamino)bicyclo[2.2.1] hept-5-ene-2-carboxamide]
13 | < 5 | NC(=O)C1C2C=CC(C2)C1Nc1nc(Nc2ccc(OCCN3CCCC3)c(Cl)c2)nc2ccccc12 (racemic) [Compound 216, Racemic-(2-exo,3-exo)-N4-(3-aminocarbonylbicyclo [2.2.1]hept-5-en-2-yl)-N2-(3-Chloro-4-(2-(1-pyrrolidinyl)ethoxy)phenyl)-2,4-quinazoline-diamine]
14 | < 5 | NC(=O)C1C2C=CC(C2)C1Nc1nc(Nc2ccc3c(c2)OCCCO3)nc2ccsc12 (stereo not shown) [Compound 182, 3-(2-(3,4-dihydro-2H-benzo[b][1,4]dioxepin-7-ylamino)thieno[3,2-d]pyrimidin-4-ylamino)bicyclo[2.2.1] hept-5-ene-2-carboxamide]
15 | < 5 | Cc1cc(Nc2nc(NC3C4C=CC(C4)C3C(N)=O)c3ccccc3n2)ccc1OCCN1CCCC1 (racemic) [Compound 215, Racemic-(2-exo,3-exo)-N4-(3-aminocarbonylbicyclo [2.2.1]hept-5-en-2-yl)-N2-(3-methyl-4-(2-(1-pyrrolidinyl)ethoxy)phenyl)-2,4-quinazoline-diamine]
16 | < 5 | CNC(=O)[C@H]1C[C@H]2CC(C2(C)C)[C@@]1(C)Nc1nc(Nc2ccc(OCCN3CCCC3)cc2)nc2ccsc12 (stereo in doubt) [Compound 197, (1S,2R,3S,5R)-N,2,6,6-tetramethyl-2-(2-(4-(2-(pyrrolidin-1-yl)ethoxy)phenylamino)thieno[3,2-d]pyrimidin-4-ylamino)bicyclo[3.1.1] heptane-3-carboxamide]
